Measured values from patent US20230276804A1, “A PESTICIDALLY ACTIVE MIXTURE COMPRISING PYRAZOLOPYRIDINE ANTHRANILAMIDE COMPOUND, OXIDES OR SALTS THEREOF” (priority 2020, published 2023).
Where “and” joins values, the source holds several entries; their conditions need not be identical. Identical values can stand only once.

Legend:
Assay type in all cases: in vivo
Helicoverpa armigera [1] = assay: Diet incorporation method against Helicoverpa armigera (Example A); settings: single compound, 0.2 ppm, 96 h
Description: The diet incorporation method was used, in which semi-synthetic diet was incorporated into the test solutions consisting either of the single compounds or respective compound combinations, when the temperature was approximately 50° C. in the bio-assay containers, then stirred thoroughly for proper mixing and allowed to cool for 30 min. The solidified diet was cut into equal pieces, and then each piece was transferred into one cell of a bio-assay tray. A single starved third instar larva was released into each of these cells of the bio-assay trays and the tray was covered with a lid. The bio-assay trays were kept under laboratory conditions at a temperature of 25° C. and relative humidity of 70%. Observations on dead, moribund and live larvae were recorded 96 h after the release of the larvae. Percent mortality was calculated by combining dead and moribund larvae and comparing the result to the one of the untreated control. The results are shown for the compound of formula (I-III) in Table A.

Plutella xylostella [2] = assay: Leaf dip method (cabbage leaves) against Plutella xylostella (Example C); settings: single compound, 72 h
Description: The leaf dip method was used, wherein the required quantity of the compound or respective compound combinations were weighed and dissolved in a test solution prepared in tubes. The tubes were put on a vortex at 2000 rpm for 90 min for proper mixing and then the test solutions were diluted with 0.01% Triton-X to the desired test concentration. Cabbage leaves were dipped into the solution for 10 seconds, shade dried for 20 min and then transferred to single cells of bioassay trays. A single second instar larva was released into each cell and the tray was covered with a lid. The bio-assay trays were kept under laboratory conditions at a temperature of 25° C. and relative humidity of 70%. Observations on dead, moribund and live larvae were recorded 72 h after the release. Percent mortality was calculated by combining dead and moribund larvae and comparing the result with the one of the untreated control. The results are shown for compound of formula (I-III) in Table C.

Helicoverpa armigera [3] = assay: Leaf dip method (tomato leaves) with Bacillus thuringiensis against Helicoverpa armigera (Example D); settings: single, 0.1 ppm, 72 h
Description: (§1) The leaf dip method was used, wherein the required quantity of the compounds were weighed and dissolved in a test solution prepared in tubes. The tubes were put on a vortex at 2000 rpm for 90 min for proper mixing and then, for the single compounds, diluted with a 0.01% Triton-X solution, for the combinations, diluted with a 0.01% Triton-X solution containing formulated Bt, to get the desired test concentrations. Tomato leaves were dipped in the solution for 10 seconds, shade dried for 20 min and then transferred to single cells of the bioassay trays. A single third instar larva was released into each cell and the tray was covered with a lid. The bio-assay trays were kept under laboratory conditions at a temperature of 25° C. and relative humidity of 70%. Observations on dead, moribund and live larvae were recorded at 72 h after the release. Percent mortality was calculated by combining dead and moribund larvae and comparing the result to the one of the untreated control. The results have been described for compound of formula (I-III) in Table D.

Plutella xylostella [4] = assay: Leaf dip method (cabbage leaves) with Bacillus thuringiensis against Plutella xylostella (Example F); settings: single, 0.1 ppm, 72 h
Description: as §1, with “desired test concentration. Cabbage leaves were” for “desired test concentrations. Tomato leaves were”, “cells of bioassay trays.” for “cells of the bioassay trays.”, “A single second instar larva” for “A single third instar larva”, “were recorded 72 h” for “were recorded at 72 h”, “comparing the results to the” for “comparing the result to the”, “in Table F.” for “in Table D.”

Alternaria solani = assay: Preventive glasshouse test against Alternaria solani in tomato (Example G); settings: single compound
Description: The single compounds or respective compound combinations were dissolved in 2% dimethyl sulfoxide/acetone and then mixed with water containing emulsifier to a calibrated spray volume of 50 mL. The test solutions were poured into spray bottles for further applications.
(§2) To test the preventive activity, healthy young tomato plants, raised in the greenhouse, were sprayed with the active compound preparation at the stated application rates inside the spray cabinets using hollow cone nozzles. One day after treatment, the plants were inoculated with a spore suspension containing 0.24×10^6 Alternaria solani inoculum and 2% Malt. The inoculated plants were then kept in a greenhouse chamber at a temperature of 22-24° C. and 90-95% relative humidity for disease expression.
A visual assessment of the performance of the single compounds or compound combinations was carried out by rating the disease severity (0-100% scale) on treated plants 3, 7, 10 and 15 days after application. Efficacy (% control) of the single compounds and mixtures was calculated by comparing the disease rating in the treatment with the one of the untreated control. The compounds were also assessed for their plant compatibility by recording symptoms like necrosis, chlorosis and stunting. The results have been described for the compound of formula (I-III) in Table G.

Pyricularia oryzae = settings: single compound, 100 ppm, preventive, rice
Erysiphe cichoracearum = assay: Preventive glasshouse test against Erysiphe cichoracearum in cucumber (Example K); settings: single compound
Description: The single compounds or the respective compound combinations were dissolved in 2% dimethyl sulfoxide/acetone and then mixed with water containing emulsifier to a calibrated spray volume of 50 mL. The test solutions were poured into spray bottles for further applications.
as §2, with “activity of compounds,” for “activity,”, “cucumber” for “tomato”, “conidial” for “spore”, “2×10^5 Erysiphe cichoracearum inoculum.” for “0.24×10^6 Alternaria solani inoculum and 2% Malt.”, “50-60%” for “90-95%”
A visual assessment of the performance of the compounds and the respective compound combinations was carried out by rating the disease severity (0-100% scale) on treated plants 3, 7, 10 and 15 days after application. Efficacy (% control) of the single compounds or compound combinations was calculated by comparing the disease rating in the treatment with the one of the untreated control. The compounds were also assessed for their plant compatibility by recording symptoms like necrosis, chlorosis and stunting. The results have been described for the compound of formula (I-III) in Table K.

## 6-(3-bromo-1-(3-chloropyridin-2-yl)-1H-pyrazole-5-carboxamido)-N-isopropyl-5-methylpyrazolo[1,5-a]pyridine-7-carboxamide [Compound (I-III)]
Helicoverpa armigera [1]
  Observed Efficacy (%): 12.5%
Plutella xylostella [2]; 0.05 ppm
  Observed Efficacy (%): 12.5%
Plutella xylostella [2]; 0.1 ppm
  Observed Efficacy (%): 12.5%
Plutella xylostella [2]; 0.5 ppm
  Observed Efficacy (%): 25%
Helicoverpa armigera [3]
  Observed Efficacy (%): 12.5%
Plutella xylostella [4]
  Observed Efficacy (%): 12.5%
Alternaria solani; 100 ppm
  Observed Efficacy (%): 30%
Alternaria solani; 500 ppm
  Observed Efficacy (%): 32%
Pyricularia oryzae
  Observed Efficacy (%): 15%
Erysiphe cichoracearum; Conc. 100 ppm
  Observed Efficacy (%): 17%
Erysiphe cichoracearum; Conc. 500 ppm
  Observed Efficacy (%): 17% and 19% and 28%
